Source: ChEMBL document CHEMBL3808342, “Discovery and optimization of a novel series of highly CNS penetrant M4 PAMs based on a 5,6-dimethyl-4-(piperidin-1-yl)thieno[2,3-d]pyrimidine core” (Bioorg Med Chem Lett, 2016)

How the values were obtained:
[1] = target: T1, Muscarinic acetylcholine receptor M4 (Homo sapiens, UniProt P08173); experiment: Positive allosteric modulation of human M4 receptor expressed in CHO cells coexpressing Gqi5 by calcium mobilization assay; assay type: functional, cell-based; conditions: read-out: EC50
T1 sequence (P08173 whole entry): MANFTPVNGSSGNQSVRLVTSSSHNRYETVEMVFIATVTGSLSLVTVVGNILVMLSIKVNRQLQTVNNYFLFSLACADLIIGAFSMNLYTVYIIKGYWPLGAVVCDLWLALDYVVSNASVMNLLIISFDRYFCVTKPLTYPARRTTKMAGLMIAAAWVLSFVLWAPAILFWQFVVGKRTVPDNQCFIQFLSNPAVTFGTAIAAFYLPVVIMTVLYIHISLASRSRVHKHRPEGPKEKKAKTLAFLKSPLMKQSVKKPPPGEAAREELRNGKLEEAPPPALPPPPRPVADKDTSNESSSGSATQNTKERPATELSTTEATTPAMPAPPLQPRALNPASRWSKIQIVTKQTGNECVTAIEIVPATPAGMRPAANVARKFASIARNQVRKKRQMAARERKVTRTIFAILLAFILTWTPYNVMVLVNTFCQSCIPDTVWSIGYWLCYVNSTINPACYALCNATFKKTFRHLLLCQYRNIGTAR

[2] = target: T2, Muscarinic acetylcholine receptor M4 (Homo sapiens) (UniProt P08173); experiment: Positive allosteric modulation of human M4 receptor expressed in CHO cells coexpressing Gqi5 by calcium mobilization assay relative to acetylcholine; assay type: functional, cell-based
T2 sequence (whole entry): T1 sequence (P08173 whole entry)

[3] = Ratio of brain to plasma partition coefficient in Sprague-Dawley rat at 0.2 to 0.25 mg/kg, iv administered as cassette dose after 0.25 hrs; assay type: ADME, organism-based; conditions: for Kp: brain, 0.25 h; for Kp at 0.25 h: Sprague-Dawley, brain and plasma
[4] = Ratio of unbound brain-to-plasma concentration in Sprague-Dawley rat at 0.2 to 0.25 mg/kg, iv administered as cassette dose after 0.25 hrs; assay type: ADME, organism-based
[5] = Drug metabolism in human hepatic microsomes assessed as compound oxidation; assay type: ADME, Liver, Microsome
[6] = Drug metabolism in rat hepatic microsomes assessed as hydroxylation of 5,6-dimethyl moiety; assay type: ADME, Liver, Microsome
Plasma = experiment: (§1) Fraction unbound in rat plasma; assay type: ADME, cell-free
[7] = Fraction unbound in human plasma; assay type: ADME, cell-free
[8] = target: Muscarinic acetylcholine receptor M3 (Homo sapiens, UniProt P20309); experiment: Positive allosteric modulation of human M3
Chain of Muscarinic acetylcholine receptor M3 (P20309 whole entry): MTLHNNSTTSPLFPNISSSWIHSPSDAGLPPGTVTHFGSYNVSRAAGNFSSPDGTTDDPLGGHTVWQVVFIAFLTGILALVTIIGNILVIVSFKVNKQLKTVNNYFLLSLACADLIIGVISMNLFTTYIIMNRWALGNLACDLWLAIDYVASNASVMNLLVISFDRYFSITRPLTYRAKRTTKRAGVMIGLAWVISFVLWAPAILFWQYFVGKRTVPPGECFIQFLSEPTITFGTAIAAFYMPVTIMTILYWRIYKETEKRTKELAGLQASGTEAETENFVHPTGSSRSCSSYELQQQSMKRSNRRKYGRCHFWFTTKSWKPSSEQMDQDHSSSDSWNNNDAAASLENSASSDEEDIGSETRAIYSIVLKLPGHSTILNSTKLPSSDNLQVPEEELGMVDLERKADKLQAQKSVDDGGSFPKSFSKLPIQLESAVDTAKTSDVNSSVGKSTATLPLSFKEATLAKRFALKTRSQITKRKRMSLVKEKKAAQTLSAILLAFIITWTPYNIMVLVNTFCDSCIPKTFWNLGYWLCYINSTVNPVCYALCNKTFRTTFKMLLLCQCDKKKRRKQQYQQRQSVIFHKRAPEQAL

[9] = target: T3, Muscarinic acetylcholine receptor M4 (Rattus norvegicus, UniProt P08485); experiment: Positive allosteric modulation of rat M4 receptor expressed in CHO cells coexpressing Gqi5 by calcium mobilization assay; assay type: functional, cell-based
T3 sequence (P08485 whole entry): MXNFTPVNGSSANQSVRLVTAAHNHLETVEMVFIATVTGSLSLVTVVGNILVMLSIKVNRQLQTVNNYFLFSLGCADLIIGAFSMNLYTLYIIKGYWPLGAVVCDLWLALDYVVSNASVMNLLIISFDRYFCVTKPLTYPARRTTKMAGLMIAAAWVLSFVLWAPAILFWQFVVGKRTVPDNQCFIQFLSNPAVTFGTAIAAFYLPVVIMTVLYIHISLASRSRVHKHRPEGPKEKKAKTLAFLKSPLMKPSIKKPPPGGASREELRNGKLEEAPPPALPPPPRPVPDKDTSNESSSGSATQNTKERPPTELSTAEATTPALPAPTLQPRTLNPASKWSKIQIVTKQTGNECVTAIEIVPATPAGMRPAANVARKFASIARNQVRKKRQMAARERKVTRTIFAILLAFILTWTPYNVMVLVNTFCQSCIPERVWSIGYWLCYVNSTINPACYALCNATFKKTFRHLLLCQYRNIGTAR

[10] = target: T4, Muscarinic acetylcholine receptor M1 (Homo sapiens, UniProt P11229); experiment: Positive allosteric modulation of human M1 receptor expressed in CHOK1 cells by calcium mobilization assay
T4 sequence (P11229 whole entry): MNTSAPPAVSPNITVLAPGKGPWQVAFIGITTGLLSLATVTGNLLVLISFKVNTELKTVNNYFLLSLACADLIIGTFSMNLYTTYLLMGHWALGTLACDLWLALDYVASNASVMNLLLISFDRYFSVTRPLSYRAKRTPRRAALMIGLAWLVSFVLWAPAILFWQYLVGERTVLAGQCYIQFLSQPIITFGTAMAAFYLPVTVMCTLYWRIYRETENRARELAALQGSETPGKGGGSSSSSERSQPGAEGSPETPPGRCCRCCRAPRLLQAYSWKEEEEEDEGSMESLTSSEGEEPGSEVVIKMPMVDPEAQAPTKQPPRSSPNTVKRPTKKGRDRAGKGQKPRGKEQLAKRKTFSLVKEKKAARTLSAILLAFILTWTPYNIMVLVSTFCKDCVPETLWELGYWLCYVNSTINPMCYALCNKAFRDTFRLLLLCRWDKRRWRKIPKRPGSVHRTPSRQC

Brain = experiment: Fraction unbound in rat brain homogenate; assay type: ADME, tissue-based
[11] = target: T5, Muscarinic acetylcholine receptor M5 (Homo sapiens, UniProt P08912); experiment: Positive allosteric modulation of human M5 receptor expressed in CHOK1 cells by calcium mobilization assay; assay type: functional, cell-based, CHO-K1
T5 sequence (P08912 whole entry): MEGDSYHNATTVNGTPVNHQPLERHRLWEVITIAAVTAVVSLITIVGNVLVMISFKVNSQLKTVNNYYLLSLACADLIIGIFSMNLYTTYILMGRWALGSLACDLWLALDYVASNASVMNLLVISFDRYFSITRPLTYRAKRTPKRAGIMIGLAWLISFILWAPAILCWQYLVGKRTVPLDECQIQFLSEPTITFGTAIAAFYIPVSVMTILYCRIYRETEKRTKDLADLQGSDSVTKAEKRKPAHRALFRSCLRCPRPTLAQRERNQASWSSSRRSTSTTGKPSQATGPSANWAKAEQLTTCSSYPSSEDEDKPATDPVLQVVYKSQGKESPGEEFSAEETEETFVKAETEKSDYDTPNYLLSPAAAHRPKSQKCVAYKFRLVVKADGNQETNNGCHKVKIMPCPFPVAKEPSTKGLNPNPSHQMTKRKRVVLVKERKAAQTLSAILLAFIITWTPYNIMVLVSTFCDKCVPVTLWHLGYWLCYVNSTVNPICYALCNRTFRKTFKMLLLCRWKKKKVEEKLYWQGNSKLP

[12] = target: T6, Muscarinic acetylcholine receptor M4 (Rattus norvegicus) (UniProt P08485); experiment: Positive allosteric modulation of rat M4 receptor expressed in CHO cells coexpressing Gqi5 by calcium mobilization assay relative to acetylcholine; assay type: functional, cell-based
T6 sequence (whole entry): T3 sequence (P08485 whole entry)

[13] = target: T7, Muscarinic acetylcholine receptor M2 (Homo sapiens, UniProt P08172); experiment: Positive allosteric modulation of human M2
T7 sequence (P08172 whole entry): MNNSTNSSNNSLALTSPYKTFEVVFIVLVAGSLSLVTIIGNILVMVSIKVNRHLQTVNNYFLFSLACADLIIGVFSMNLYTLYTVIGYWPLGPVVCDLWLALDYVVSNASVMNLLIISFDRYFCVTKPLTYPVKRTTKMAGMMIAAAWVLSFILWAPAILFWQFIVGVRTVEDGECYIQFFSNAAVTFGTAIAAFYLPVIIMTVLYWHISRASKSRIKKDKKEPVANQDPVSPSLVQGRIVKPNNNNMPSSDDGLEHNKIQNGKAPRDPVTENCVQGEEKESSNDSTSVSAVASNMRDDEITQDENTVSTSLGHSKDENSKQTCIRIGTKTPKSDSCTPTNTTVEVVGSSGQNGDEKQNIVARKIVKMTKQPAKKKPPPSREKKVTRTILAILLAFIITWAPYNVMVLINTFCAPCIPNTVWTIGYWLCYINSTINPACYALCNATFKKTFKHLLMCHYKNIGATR

[14] = as §1; assay type: ADME, cell-free
[15] = target: T2, Muscarinic acetylcholine receptor M4 (Homo sapiens); experiment: Antagonist activity at human M4 receptor expressed in CHO cells coexpressing Gqi5 assessed as acetylcholine-induced calcium mobilization; assay type: functional, cell-based; set-up: scale not given: the % may be the effect or the level left
[16] = target: T1, Muscarinic acetylcholine receptor M4; experiment: Antagonist activity at human M4 receptor expressed in CHO cells coexpressing Gqi5 by calcium mobilization assay; assay type: functional, cell-based

With `Cc1sc2ncnc(N3CCC(C(=O)NCc4ccc(S(N)(=O)=O)cc4)CC3)c2c1C` the EC50 [1] was 2.3 µM and the %max [2] was 67%.

With `Cc1ccc(OC2CCN(c3nc(C)nn4ccc(C)c34)CC2)cn1` the EC50 [1] was 1.1 µM, the Kp [3] was 1.42 and the “K(p,uu,brain)” value [4] was 1.95. It also gave a %max [2] of 58%.

With `Cc1sc2ncnc(N3CCC(Oc4ccc(Cl)nc4)CC3)c2c1C` the EC50 [1] was 4.3 µM, the Kp [3] was 2.56 and the “K(p,uu,brain)” value [4] was 0.17. For the same molecule, the %max [2] was 64%.

`Cc1sc2ncnc(N3CCC(C(=O)N4CCSCC4)CC3)c2c1C` showed an EC50 [1] of 0.82 µM and a %max [2] of 75%.

Molecule `Cc1sc2ncnc(N3CCC(C(=O)Nc4cc(Cl)ccc4Cl)CC3)c2c1C` has an EC50 [1] of 3.8 µM and a %max [2] of 69%.

With `Cc1ccc(OC2CCN(c3ncnc4sc(C)c(C)c34)CC2)cn1` the EC50 [1] was 0.6 µM, the Kp [3] was 1.16 and the “K(p,uu,brain)” value [4] was 0.74. For the same molecule, the Drug metabolism [5] was “metabolite_detected”, the Drug metabolism [6] was “metabolite_detected” and the %max [2] was 65%.

With `Cc1ncc(OC2CCN(c3ncnc4sc(C)c(C)c34)CC2)cn1` the EC50 [1] was 4.4 µM, the Kp [3] was 1.77 and the “K(p,uu,brain)” value [4] was 0.65. For the same molecule, the %max [2] was 60%.

In the case of `Cc1sc2ncnc(N3CCC(C(=O)N4CCCC4)CC3)c2c1C`, the EC50 [1] is reported as 1.1 µM, the Fu (Plasma) is reported as 0.04 and the Kp [3] is reported as 0.45. The “K(p,uu,brain)” value [4] was 0.45, the %max [2] was 68% and the Fu [7] was 0.06.

`Cc1ccc(OC2CCN(c3ncnc4ccc(F)cc34)CC2)cn1` gave an EC50 [1] of 0.6 µM, an EC50 [8] of over 10 µM and a Fu (Plasma) of 0.02. For the same molecule, the Kp [3] was 11.1, the “K(p,uu,brain)” value [4] was over 10 and the EC50 [9] was 0.95 µM. For the same molecule, the EC50 [10] was over 10 µM, the %max [2] was 62% and the Fu (Brain) was 0.03. The EC50 [11] was over 10 µM, the %max [12] was 57% and the Fu [7] was 0.16. The EC50 [13] was over 10 µM.

In the case of `Cc1sc2ncnc(N3CCC(C(=O)Nc4ccc(N5CCNC5=O)cc4)CC3)c2c1C`, the EC50 [1] is reported as 6.2 µM and the %max [2] is reported as 40%.

With `Cc1sc2ncnc(N3CCC(C(=O)N4CCCc5cc(S(C)(=O)=O)ccc54)CC3)c2c1C` the EC50 [1] was 0.96 µM and the %max [2] was 69%.

With `Cc1sc2ncnc(N3CCC(C(=O)Nc4ccc(F)cc4Cl)CC3)c2c1C` the EC50 [1] was 1.6 µM and the %max [2] was 55%.

For `Cc1sc2ncnc(N3CCC(Oc4ccc(F)nc4)CC3)c2c1C`, the EC50 [1] was 1.8 µM, the Kp [3] was 2.8 and the “K(p,uu,brain)” value [4] was 0.34. It also gave a %max [2] of 68%.

With `Cc1sc2ncnc(N3CCC(C(=O)N4CCCC(F)(F)C4)CC3)c2c1C` the EC50 [1] was 1.9 µM and the %max [2] was 60%.

In the case of `Cc1sc2ncnc(N3CCC(Oc4ccc5c(c4)CCO5)CC3)c2c1C`, the EC50 [1] is reported as 2.3 µM, the Kp [3] is reported as 1.25 and the “K(p,uu,brain)” value [4] is reported as 1.38. It also gave a %max [2] of 74%.

With `Cc1sc2ncnc(N3CCC(C(=O)Nc4ccc(C(N)=O)cc4)CC3)c2c1C` the EC50 [1] was 0.39 µM and the %max [2] was 56%.

With `Cc1sc2ncnc(N3CCC(C(N)=O)CC3)c2c1C` the EC50 [1] was over 10 µM and the %max [2] was 25%.

In the case of `Cc1ccc2ncnc(N3CCC(Oc4ccc(C)nc4)CC3)c2c1`, the EC50 [1] is reported as 1.2 µM, the Kp [3] is reported as 0.94 and the “K(p,uu,brain)” value [4] is reported as 0.62. For the same molecule, the %max [2] was 49%.

`Cc1sc2ncnc(N3CCC(C(=O)N4CCOCC4)CC3)c2c1C` showed an EC50 [1] of 1.7 µM and a %max [2] of 65%.

In the case of `Cc1ccc(OC2CCN(c3cc(C)nc4ccc(F)cc34)CC2)cn1`, the EC50 [1] is reported as 0.69 µM, the Kp [3] is reported as 21.4 and the “K(p,uu,brain)” value [4] is reported as 18.2. For the same molecule, the %max [2] was 64%.

`CCCCN(c1ccc(C)nc1)C1CCN(c2ncnc3sc(C)c(C)c23)CC1` showed a fraction unbound [14] of over 0.1, a Kp at 0.25 h [3] of 0.2 and an Activity [15] of 8.7%. It also gave an IC50 [16] of 1.5 µM and a Fu [7] of over 0.1.

`CCCN(c1ccc(C)nc1)C1CCN(c2ncnc3sc(C)c(C)c23)CC1` showed a fraction unbound [14] of over 0.1, a Kp at 0.25 h [3] of 0.2 and an Activity [15] of 9.3%. It also gave an IC50 [16] of 2.4 µM and a Fu [7] of over 0.1.

Work on `Cc1sc2ncnc(N3CCC(C(=O)Nc4ccc(S(C)(=O)=O)cc4)CC3)c2c1C` yielded an EC50 [1] of 0.85 µM and a %max [2] of 62%.

Molecule `CNC(=O)c1ccc(NC(=O)C2CCN(c3ncnc4sc(C)c(C)c34)CC2)cc1` has an EC50 [1] of 0.57 µM and a %max [2] of 70%.

`Cc1sc2ncnc(N3CCC(C(=O)N4CC[C@H](F)C4)CC3)c2c1C` showed an EC50 [1] of 0.97 µM, a Fu (Plasma) of 0.12 and a Kp [3] of 0.17. For the same molecule, the “K(p,uu,brain)” value [4] was 0.12, the %max [2] was 79% and the Fu [7] was 0.05.
